Series [1] deals with mouse. The series can be described thus: Acute toxicity (LD50), mouse ip injection. To be noted: mouse ip after injection.
Series [2] deals with mouse. The series can be described thus: Acute toxicity (LD50), mouse ig.
A short description of series [3]: in vivo. To be noted: mouse, ip.
For series [4], the system named is MGC human stomach cancer cells. Briefly: Mouse transplant tumor, MGC human stomach cancer.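 On all read-outs here: control group received saline vehicle.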 To be noted: for inhibitive effect on mouse transplant tumor (in words): 125 mg/kg; for Inhibition of tumor growth / Weight of tumor / weight end / weight start: 125 mg/kg once a day for 7 days; for weight end: animal weight at end; for weight start: animal weight at start.
Method: Saline solution was used as a control. The positive group CTX was treated with the compounds at an amount of 0.4 ml/20 g. The compounds were applied once a day for consecutive 7 days. The animals were then compensated.

Series [5] concerns B16 malignant melanoma. The series can be described thus: Mouse transplant tumor, B16 malignant melanoma. To be noted: for Inhibition of tumor growth (%) / Weight of tumor / weight end / weight start: B16, 125 mg/kg once a day for 7 days; for weight end: body weight at end; for weight start: body weight at start; for inhibitive effect on mouse transplant tumor (in words): B16 malignant melanoma, 125 mg/kg.
Method: (§1) Saline solution was used as a control. The positive group CTX was treated with the compounds at an amount of 0.4 ml/20 g. The compounds were applied once a day for consecutive 7 days.

Series [6] relates to MX-1 human breast cancer cells. Briefly: Mouse transplant tumor, MX-1 human breast cancer.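 On all read-outs here: mice given saline served as the control group.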 To be noted: for inhibitive effect on mouse transplant tumor (in words): 125 mg/kg; for Inhibition of tumor growth / Weight of tumor / weight end / weight start: 125 mg/kg once a day for 7 days; for weight end: animal weight at end; for weight start: animal weight at start.
Method: as §1
In series [7] the test system is AsPc human pancreatic cancer cells. The series can be described thus: Mouse transplant tumor, AsPc human pancreatic cancer.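 On all read-outs here: Saline-treated mice served as the control group, with a CTX-treated group as positive reference.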 To be noted: for inhibitive effect on mouse transplant tumor (in words): 125 mg/kg; for Inhibition of tumor growth / Weight of tumor / weight end / weight start: 125 mg/kg once a day for 7 days; for weight end: animal weight at end; for weight start: animal weight at start.
Method: as §1

In series [8] the test system is anaplastic thyroid carcinoma TA-K cells. Briefly: Mouse transplant tumor, human anaplastic thyroid carcinoma TA-K.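 On all read-outs here: Tumor-bearing mice compared against a saline-treated control group.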 To be noted: for inhibitive effect on mouse transplant tumor (in words): anaplastic thyroid carcinoma TA-K, 125 mg/kg; for Inhibition of tumor growth / Weight of tumor / weight end / weight start: human anaplastic thyroid carcinoma TA-K, 125 mg/kg once a day for 7 days; for weight end: animal weight at end; for weight start: animal weight at start.
Method: as §1

Series [9] can be described thus: in vivo. To be noted: mouse, po.
Series [10] concerns 05-732 human bone tumor. Briefly: Mouse transplant tumor, 05-732 human osteosarcoma. To be noted: for inhibitive effect on mouse transplant tumor (in words): 05-732 human bone tumor, 125 mg/kg; for Inhibtion of tumor growth / Weight of tumor / weight end / weight start: 05-732 human osteosarcoma, 125 mg/kg once a day for 7 days; for weight end: animal weight at end; for weight start: animal weight at start.
Method: as §1

Each structure is given as a SMILES string. Entries after “also recorded” stand apart in the source; their conditions may differ.

Broadly, the LD50 is the dose expected to kill half of the subjects tested. Low values mean greater toxicity, high ones lower toxicity.

`CC(=O)OCC1OC(OP(=O)(NCCCl)NCCCl)C(Br)CC1OC(C)=O` (single isomer, unassigned) [Compound 8]: the LD50 is 301.4 mg/kg in series [1] and 2017.5 mg/kg in series [2].
The corresponding values for `CC(=O)OCC1OC(Br)C(Br)CC1OC(C)=O` (single isomer, unassigned) [Compound 4] are 356.2 mg/kg and 2389.2 mg/kg.
In the case of `CC(=O)OCC1OC(Br)C(Br)CC1OC(C)=O` (single isomer, unassigned) [Compound 3], in [3], the LD50 is 359 mg/kg. In series [4], the “inhibitive effect on mouse transplant tumor (in words)” value (“inhibitive effect” for short) is listed as “good inhibitive effect; also recorded: significant effect”, the “Inhibition of tumor growth” value was determined as 72.5, the Weight of tumor amounted to 0.7 and the weight end is on record as 18.3. The same compound came in with a weight start in series [4] of 18.2. For the same compound, in series [5], the “Inhibition of tumor growth (%)” value was 76.8%, the Weight of tumor is recorded as 0.6, the weight end is 18.3 and the weight start was found to be 18.2. In addition, in series [5], the “inhibitive effect” value is given as “good inhibitive effect; also recorded: significant effect”. Further, in series [6], the “inhibitive effect” value is “good inhibitive effect; also recorded: significant effect”, the “Inhibition of tumor growth” value is listed as 75.8, the Weight of tumor was found to be 0.6 and the weight end is 18.3. The compound also returned a weight start in [6] of 18.2. In series [7], the “inhibitive effect” value is recorded as “good inhibitive effect; also recorded: significant effect”, the “Inhibition of tumor growth” value came to 77.3, the Weight of tumor amounted to 0.5 and the weight end is 18.3. For the same compound, the weight start in series [7] came out at 18.2. Further, in series [8], the “inhibitive effect” value is listed as “good inhibitive effect; also recorded: significant effect”, the “Inhibition of tumor growth” value came to 73.2, the Weight of tumor is recorded as 0.7 and the weight end was 18.3. In series [8], this compound came in with a weight start of 18.2. In addition, in series [9], the 50% lethal dose (LD50) is 2320 mg/kg. In addition, in series [10], the “inhibitive effect” value is “good inhibitive effect; also recorded: significant effect”, the “Inhibtion of tumor growth” value worked out at 71.5, the Weight of tumor stood at 0.8 and the weight end is recorded as 18.3. In series [10], this compound showed a weight start of 18.2.
Take `COc1cc(C2c3cc4c(cc3C(C3OC(COC(C)=O)C(OC(C)=O)CC3Br)C3COC(=O)C23)OCO4)cc(OC)c1O` (stereo not drawn) [Compound 14]: the LD50 in [3] amounted to 300 mg/kg; in series [9], 1970 mg/kg. For the same compound, the “inhibitive effect” value in series [4], in series [5], in series [6], in series [7], in [8] and in [10] was “good inhibitive effect; also recorded: significant effect” in each case. Further, the “Inhibition of tumor growth” value in series [4] stood at 71.9; in series [6], 76.3; in [7] it was 75.2; in [8], 76.2. The Weight of tumor in [4] came out at 0.7; in series [5] it was 0.6; in [6], 0.6; in series [7] it was 0.3; in series [8] it was 0.6; in series [10] it was 0.8. Further, the “Inhibition of tumor growth (%)” value in [5] was found to be 76.2%. Moreover, the “Inhibtion of tumor growth” value in [10] was 72.3.
For `COc1cc(C2c3cc4c(cc3C(C3CC(Br)C(OC(C)=O)C(COC(C)=O)O3)C3COC(=O)C23)OCO4)cc(OC)c1O` (stereo not drawn) [Compound 13], the LD50 stood at 299 mg/kg in series [3] and 1830 mg/kg in series [9]. Further, the “inhibitive effect” value in [4], in [5], in series [6], in series [7], in series [8] and in [10] was “good inhibitive effect” each time.
As to `CC(=O)OCC1OC(OP(=O)(NCCCl)NCCCl)CC(Br)C1OC(C)=O` (single isomer, unassigned) [Compound 5], the LD50 in series [3] came to 301 mg/kg; in series [9] it was 2120 mg/kg. Moreover, the “inhibitive effect” value in [4], in [5], in series [6], in series [7], in series [8] and in series [10] was “good inhibitive effect; also recorded: significant effect” throughout. Moreover, the “Inhibition of tumor growth” value amounted to 75.7 in [4], 83.6 in [6], 81.5 in [7] and 76.6 in [8]. Moreover, the Weight of tumor in series [4] was determined as 0.6; in series [5] it was 0.6; in [6], 0.4; in series [7], 0.4; in [8] it was 0.6; in series [10], 0.7. Further, the weight end in [4], in series [5], in series [6], in series [7], in series [8] and in series [10] was 18.6 in each case. The weight start in series [4], in series [5], in [6], in [7], in [8] and in [10] was 18.3 in each case. In addition, the “Inhibition of tumor growth (%)” value in series [5] came to 76.4%. For the same compound, in [10], the “Inhibtion of tumor growth” value stood at 74.9.
`CC(=O)OCC1OC(OP(=O)(NCCCl)NCCCl)C(Br)CC1OC(C)=O` (single isomer, unassigned) [Compound 7] showed an LD50 in series [3] of 316 mg/kg. In series [4], the “inhibitive effect” value is “good inhibitive effect; also recorded: significant effect”, the “Inhibition of tumor growth” value is on record as 83.8, the Weight of tumor was 0.4 and the weight end is reported as 18.4. In series [4], this compound gave a weight start of 18.3. Moreover, in series [5], the “Inhibition of tumor growth (%)” value came to 80.4%, the Weight of tumor came to 0.5, the weight end is on record as 18.4 and the weight start was determined as 18.3. Besides, the “inhibitive effect” value in [5] is on record as “good inhibitive effect; also recorded: significant effect”. In series [6], the “inhibitive effect” value is on record as “good inhibitive effect; also recorded: significant effect”, the “Inhibition of tumor growth” value is 80.8, the Weight of tumor turned out to be 0.5 and the weight end was determined as 18.4. In addition, in series [6], the weight start is recorded as 18.3. Besides, in series [7], the “inhibitive effect” value is “good inhibitive effect; also recorded: significant effect”, the “Inhibition of tumor growth” value is 73.6, the Weight of tumor came to 0.6 and the weight end came out at 18.4. The compound also yielded a weight start in series [7] of 18.3. Further, in [8], the “inhibitive effect” value is given as “good inhibitive effect; also recorded: significant effect”, the “Inhibition of tumor growth” value was found to be 84.2, the Weight of tumor is on record as 0.4 and the weight end is on record as 18.4. Moreover, the weight start in series [8] is 18.3. In series [9], this compound had an LD50 of 2220 mg/kg. Further, in series [10], the “inhibitive effect” value is “good inhibitive effect; also recorded: significant effect”, the “Inhibtion of tumor growth” value was 81.3, the Weight of tumor is 0.5 and the weight end was 18.4. Besides, the weight start in series [10] stood at 18.3.
For the compound `CC(=O)OCC1OC(OP(=O)(O)N(CCCl)CCCl)C(Br)CC1OC(C)=O` (stereo not drawn) [Compound 11], the LD50 in series [3] turned out to be 323 mg/kg; in series [9] it was 2030 mg/kg.
The corresponding values for `CC(=O)OCC1OC(OP(=O)(O)N(CCCl)CCCl)CC(Br)C1OC(C)=O` (stereo not drawn) [Compound 9] are 307 mg/kg and 2140 mg/kg.

Values taken from patent US9296774B2, “Halogenated dideoxy sugar derivates, preparation method and application thereof” (Suzhou Harmony Biotechnology Co., Ltd., priority 2009, dated 2016).
